# Laboratory results taken from paper PMC9520775, “Everolimus pharmacokinetics and exposure-response relationship in Japanese patients with advanced breast cancer” (Frontiers in Pharmacology, 2022).
# Tested on: patients with advanced or metastatic breast cancer
# Assay: Adverse events (CTCAE Ver. 4.0), dose-limiting toxicities and dose reductions under everolimus
# Assay type: in vivo, human
# Excerpt: This was a prospective, observational PK study. Patients with advanced or metastatic breast cancer who received everolimus between November 2015 and November 2018 at Kobe City Medical Center General Hospital were enrolled in this study. The main inclusion criteria included the following: age ≥20 years; Eastern Cooperative Oncology Group (ECOG) performance status (PS): 0 or 1; and adequate bone marrow, liver, and renal function. The main exclusion criteria were interstitial pneumonia or pulmonary fibrosis, HBsAg positive, and psychiatric or psychological symptoms that made it difficult to participate in the study. Every participant provided written informed consent. This study was conducted in accordance with the Declaration of Helsinki and approved by the Institutional Review Board, under Approval Number zn151103.
# Based on the physician’s decision, the patients were prescribed a starting dose of either 5 or 10 mg everolimus once daily. The everolimus dose was reduced when a patient experienced adverse events higher than grade 2. The first reduced dose was 5 mg once daily, followed by the second reduced dose of 2.5 mg once daily or 5 mg every alternate day. In addition, everolimus doses could be increased if adverse events improved to grade 1 or less, or deemed inefficacious. The adverse events were evaluated weekly for the first month and then every 1–4 weeks, according to the Common Terminology Criteria for Adverse Events Ver. 4.0.
# Statistical differences in everolimus trough concentrations, doses and body weights between patient cohorts were assessed using the Mann–Whitney test. Progression-free survival (PFS) was assessed using the Kaplan-Meier method and the log-rank test. All statistical analyses were performed using GraphPad Prism version 7.03 (San Diego, CA). p < 0.05 was considered statistically significant.
# [1] = All patients (n = 18), Grade All
# [2] = Initial dose: 5 mg/day (n = 6), Grade 1
# [3] = Initial dose: 5 mg/day (n = 6), Grade 2
smiles,measurement,setting,value
CO[C@H]1C[C@@H]2CC[C@@H](C)[C@@](O)(O2)C(=O)C(=O)N2CCCC[C@H]2C(=O)O[C@H]([C@H](C)C[C@@H]2CC[C@@H](OCCO)[C@H](OC)C2)CC(=O)[C@H](C)/C=C(\C)[C@@H](O)[C@@H](OC)C(=O)[C@H](C)C[C@H](C)/C=C/C=C/C=C/1C [everolimus],"Adverse event, n: Diarrhea","All patients (n = 18), Grade 1",1
same,"Adverse event, n: Dysgeusia","All patients (n = 18), Grade 1",4
same,"Adverse event, n: Epistaxis","All patients (n = 18), Grade 1",6
same,"Adverse event, n: High cholesterol","All patients (n = 18), Grade 1",9
same,"Adverse event, n: Hyperglycemia","All patients (n = 18), Grade 1",4
same,"Adverse event, n: Hypertriglyceridemia","All patients (n = 18), Grade 1",8
same,"Adverse event, n: Hypokalemia","All patients (n = 18), Grade 1",6
same,"Adverse event, n: Interstitial lung disease","All patients (n = 18), Grade 1",3
same,"Adverse event, n: Malaise","All patients (n = 18), Grade 1",6
same,"Adverse event, n: Mucositis oral","All patients (n = 18), Grade 1",7
same,"Adverse event, n: Neutrophil count decreased","All patients (n = 18), Grade 1",2
same,"Adverse event, n: Platelet decrease","All patients (n = 18), Grade 1",9
same,"Adverse event, n: Rash","All patients (n = 18), Grade 1",11
same,"Adverse event, n: Diarrhea","All patients (n = 18), Grade 2",4
same,"Adverse event, n: Dysgeusia","All patients (n = 18), Grade 2",1
same,"Adverse event, n: Epistaxis","All patients (n = 18), Grade 2",0
same,"Adverse event, n: High cholesterol","All patients (n = 18), Grade 2",2
same,"Adverse event, n: Hyperglycemia","All patients (n = 18), Grade 2",1
same,"Adverse event, n: Hypertriglyceridemia","All patients (n = 18), Grade 2",4
same,"Adverse event, n: Hypokalemia","All patients (n = 18), Grade 2",1
same,"Adverse event, n: Interstitial lung disease","All patients (n = 18), Grade 2",2
same,"Adverse event, n: Malaise","All patients (n = 18), Grade 2",1
same,"Adverse event, n: Mucositis oral","All patients (n = 18), Grade 2",10
same,"Adverse event, n: Neutrophil count decreased","All patients (n = 18), Grade 2",3
same,"Adverse event, n: Platelet decrease","All patients (n = 18), Grade 2",0
same,"Adverse event, n: Rash","All patients (n = 18), Grade 2",3
same,"Adverse event, n: Diarrhea","All patients (n = 18), Grade 3",0
same,"Adverse event, n: Dysgeusia","All patients (n = 18), Grade 3",0
same,"Adverse event, n: Epistaxis","All patients (n = 18), Grade 3",0
same,"Adverse event, n: High cholesterol","All patients (n = 18), Grade 3",0
same,"Adverse event, n: Hyperglycemia","All patients (n = 18), Grade 3",0
same,"Adverse event, n: Hypertriglyceridemia","All patients (n = 18), Grade 3",0
same,"Adverse event, n: Hypokalemia","All patients (n = 18), Grade 3",1
same,"Adverse event, n: Interstitial lung disease","All patients (n = 18), Grade 3",0
same,"Adverse event, n: Malaise","All patients (n = 18), Grade 3",0
same,"Adverse event, n: Mucositis oral","All patients (n = 18), Grade 3",0
same,"Adverse event, n: Neutrophil count decreased","All patients (n = 18), Grade 3",1
same,"Adverse event, n: Platelet decrease","All patients (n = 18), Grade 3",0
same,"Adverse event, n: Rash","All patients (n = 18), Grade 3",0
same,"Adverse event, n: Diarrhea","All patients (n = 18), Grade 4",0
same,"Adverse event, n: Dysgeusia","All patients (n = 18), Grade 4",0
same,"Adverse event, n: Epistaxis","All patients (n = 18), Grade 4",0
same,"Adverse event, n: High cholesterol","All patients (n = 18), Grade 4",0
same,"Adverse event, n: Hyperglycemia","All patients (n = 18), Grade 4",0
same,"Adverse event, n: Hypertriglyceridemia","All patients (n = 18), Grade 4",0
same,"Adverse event, n: Hypokalemia","All patients (n = 18), Grade 4",1
same,"Adverse event, n: Interstitial lung disease","All patients (n = 18), Grade 4",0
same,"Adverse event, n: Malaise","All patients (n = 18), Grade 4",0
same,"Adverse event, n: Mucositis oral","All patients (n = 18), Grade 4",0
same,"Adverse event, n: Neutrophil count decreased","All patients (n = 18), Grade 4",0
same,"Adverse event, n: Platelet decrease","All patients (n = 18), Grade 4",0
same,"Adverse event, n: Rash","All patients (n = 18), Grade 4",0
same,"Adverse event, n: Diarrhea",[1],5
same,"Adverse event, n: Dysgeusia",[1],5
same,"Adverse event, n: Epistaxis",[1],6
same,"Adverse event, n: High cholesterol",[1],11
same,"Adverse event, n: Hyperglycemia",[1],5
same,"Adverse event, n: Hypertriglyceridemia",[1],12
same,"Adverse event, n: Hypokalemia",[1],9
same,"Adverse event, n: Interstitial lung disease",[1],5
same,"Adverse event, n: Malaise",[1],7
same,"Adverse event, n: Mucositis oral",[1],17
same,"Adverse event, n: Neutrophil count decreased",[1],6
same,"Adverse event, n: Platelet decrease",[1],9
same,"Adverse event, n: Rash",[1],14
same,trough concentrations at DLTs compared with trough concentrations in the absence of DLTs,"DLT (n = 13) vs no DLT (n = 18), Mann-Whitney test, p = 0.0058",significantly higher
same,"number of patients, DLTs (−)","Dose 5 mg, BW 36.1–40.0 kg",1
same,"number of patients, DLTs (−)","Dose 5 mg, BW 40.1–45.0 kg",1
same,"number of patients, DLTs (+)","Dose 5 mg, BW 45.1–50.0 kg",1
same,"number of patients, DLTs (+)","Dose 5 mg, BW 50.1–55.0 kg",1
same,"number of patients, DLTs (−)","Dose 5 mg, BW 50.1–55.0 kg",3
same,"number of patients, DLTs (+)","Dose 5 mg, BW 55.1–60.0 kg",3
same,"number of patients, DLTs (−)","Dose 5 mg, BW 55.1–60.0 kg",2
same,"number of patients, DLTs (+)","Dose 10 mg, BW 36.1–40.0 kg",1
same,"number of patients, DLTs (+)","Dose 10 mg, BW 40.1–45.0 kg",1
same,"number of patients, DLTs (−)","Dose 10 mg, BW 40.1–45.0 kg",1
same,"number of patients, DLTs (+)","Dose 10 mg, BW 45.1–50.0 kg",2
same,"number of patients, DLTs (−)","Dose 10 mg, BW 45.1–50.0 kg",1
same,"number of patients, DLTs (+)","Dose 10 mg, BW 50.1–55.0 kg",2
same,"number of patients, DLTs (+)","Dose 10 mg, BW 55.1–60.0 kg",2
same,"number of patients, DLTs (−)","Dose 10 mg, BW 60.1–65.0 kg",1
same,"number of patients, DLTs (−)","Dose 10 mg, BW 66.1–70.0 kg",1
same,"Adverse event, n: Diarrhea",[2],0
same,"Adverse event, n: Dysgeusia",[2],1
same,"Adverse event, n: Epistaxis",[2],2
same,"Adverse event, n: High cholesterol",[2],4
same,"Adverse event, n: Hyperglycemia",[2],2
same,"Adverse event, n: Hypertriglyceridemia",[2],2
same,"Adverse event, n: Hypokalemia",[2],2
same,"Adverse event, n: Interstitial lung disease",[2],0
same,"Adverse event, n: Malaise",[2],1
same,"Adverse event, n: Mucositis oral",[2],2
same,"Adverse event, n: Neutrophil count decreased",[2],0
same,"Adverse event, n: Platelet decrease",[2],2
same,"Adverse event, n: Rash",[2],3
same,"Adverse event, n: Diarrhea",[3],1
same,"Adverse event, n: Dysgeusia",[3],1
same,"Adverse event, n: Epistaxis",[3],0
same,"Adverse event, n: High cholesterol",[3],0
same,"Adverse event, n: Hyperglycemia",[3],0
same,"Adverse event, n: Hypertriglyceridemia",[3],1
same,"Adverse event, n: Hypokalemia",[3],0
same,"Adverse event, n: Interstitial lung disease",[3],1
same,"Adverse event, n: Malaise",[3],1
same,"Adverse event, n: Mucositis oral",[3],4
same,"Adverse event, n: Neutrophil count decreased",[3],0
same,"Adverse event, n: Platelet decrease",[3],0
same,"Adverse event, n: Rash",[3],1
